“Also recorded” adds a separate entry of the source.
Legend:
[1] = test system: RCC patient derived xenografts (PDX); assay: In vivo efficacy in sixteen RCC patient derived tumor xenograft models (PDX); set-up: species or system female NMRI nu/nu mice (human tumor xenografts); settings: 16 s.c. RCC PDX models, n = 5 per group; p.o. up to 70 days; Compound A 100 mg/kg QD, axitinib 4 mg/kg BID, cabozantinib 10 mg/kg QD; progression = RTV 173%
Description: All experiments and protocols were approved by animal welfare body and local authorities, and were conducted according to all applicable international, national and local laws and guidelines. Only animals with unobjectionable health were selected to enter testing procedures. The animals (female NMRI nu/nu mice (NMRI-Foxn1^nu); Envigo RMS GmbH, Netherlands) were delivered at the age of four to six weeks and were used for experiments after at least one week of acclimatization. Animals were arbitrarily numbered during tumor implantation using radio frequency identification transponders. Each cage was labeled with a record card indicating all relevant experimental details.
The tumor xenografts were derived from surgical specimens from human cancer patients. Following excision at surgery, tumor pieces were subcutaneously implanted into immunodeficient mice and are therefore referred to as patient-derived tumor xenografts (PDX). Establishment and characterization of the PDXs was performed following their primary implantation into immunodeficient mice (passage 1). The tumor xenografts were passaged until establishment of a stable growth pattern.
Axitinib: A dosing solution of 0.4 mg/ml for dosing at 4 mg/kg/dose was prepared daily by dissolving 6.4 mg dry matter in 16 ml vehicle and stirring for at least 30 min. If necessary, the solution was sonicated for 2 min.
Cabozantinib: A dosing solution of 1 mg/ml for dosing at 10 mg/kg/dose was prepared directly before administration by slowly adding 0.2 ml 100% propylene glycol to 12 mg cabozantinib. It was stirred vigorously on a magnetic stirrer until a fine suspension with clumps formed, followed by vortexing briefly for 15-20 s. A further 3.4 ml propylene glycol was added and the stirring and vortexing steps were repeated. Then 600 µl 100% Tween 80 was added while stirring continuously followed by vortexing briefly for 15-20 s. The solution was then sonicated for 10 min and 7.8 ml D5W was added while stirring slowly. At this stage the solution was clear with lots of air bubbles. Care was taken to exclude these when drawing the suspension into a syringe for administration of therapy.
The resulting white suspension was stirred for two hours on a magnetic stirrer with a hot plate (Phoenix Instruments, model RSM-10HS) at 50° C. The suspension was brought to room temperature and mixed well each time before transferring to a syringe for dosing.
Tumor cell inoculation: Tumor fragments were obtained from xenografts in serial passage in nude mice. After removal from donor mice, tumors were cut into fragments (3-4 mm edge length) and placed in PBS containing 10% penicillin/streptomycin. Recipient animals were anesthetized by inhalation of isoflurane and received unilateral or bilateral tumor implants subcutaneously in the flank.
Randomization: Animals and tumor implants were monitored daily until solid tumor growth was detectable in a sufficient number of animals. At randomization, the volume of growing tumors was determined. […] Animals not used for experiments where available were used as satellite animals for PD sampling. The day of randomization was designated as day 0 of the experiment. The time from implantation to randomization at a standard tumor volume is expressed in days as “Induction time (IT)”. Induction times of tumors are routinely recorded, and a median IT is calculated for characterization purposes.
Tumor measurements and calculations: Tumor length (L) and width (W) were measured twice weekly by calipers. The tumor volume was calculated using the formula L×W^2/2. Relative volumes of individual tumors (individual RTVs) for Day x were calculated by dividing the absolute individual tumor volume on Day x (Tx) by the absolute individual tumor volume of the same tumor on the day of randomization (Tr) multiplied by 100%.

[2] = clinical trials; cited from earlier work

| Compound | tumor growth / tumor progression under monotherapy treatment [1] | neurotoxicity [2] |
| --- | --- | --- |
| O=C(NCc1cc(F)cc(F)c1)[C@@]1(O)CCN(c2ccc3[nH]ccc3c2)C1=O [Compound A, (S)-3-Hydroxy-1-(1H-indol-5-yl)-2-oxo-pyrrolidine-3-carboxylic acid 3,5-difluoro-benzylamide] | progressed under monotherapy treatment; also recorded: did not strongly inhibit tumor growth, and tumors progressed under treatment | – |
| CNC(=O)c1ccccc1Sc1ccc2c(/C=C/c3ccccn3)n[nH]c2c1 [axitinib, N-methyl-2-({3-[(1E)-2-(pyridin-2-yl)ethenyl]-1H-indazol-6-yl}sulfanyl)benzamide] | progressed under monotherapy treatment; also recorded: did not strongly inhibit tumor growth, and tumors progressed under treatment | – |
| COc1cc2nccc(Oc3ccc(NC(=O)C4(C(=O)Nc5ccc(F)cc5)CC4)cc3)c2cc1OC [cabozantinib, N-{4-[(6,7-dimethoxyquinolin-4-yl)oxy]phenyl}-N′-(4-fluorophenyl)cyclopropane-1,1-dicarboxamide] | progressed under monotherapy treatment; also recorded: did not strongly inhibit tumor growth, and tumors progressed under treatment | – |
| CO[C@@H]1[C@H](OC(=O)/C=C/C=C/C=C/C=C/C(=O)O)CC[C@]2(CO2)[C@H]1[C@@]1(C)O[C@@H]1CC=C(C)C [fumagillin] | – | pronounced neurotoxicity |

Source: patent US20230248695A1, “COMBINATIONS OF CANCER THERAPEUTICS” (Merck Patent GmbH, priority 2020, published 2023)
